The values that follow come from patent publication US10653131B2 (priority 2013, dated 2020).

The assay has as its system spores of Bacillus thuringiensis.

On to `O=[N+]([O-])O` [nitric acid], for which the “destruction, inactivation of spores” value is “ensured destruction, inactivation”.
